Laboratory results reported in the supplement of paper PMC10307832.

How the values were obtained:
Test in all cases: relative viability (nuclei count vs DMSO), 5 days (fraction); higher = more cells survive
Linsitinib + Luminespib = compound: C[C@]1(O)C[C@@H](c2nc(-c3ccc4ccc(-c5ccccc5)nc4c3)c3c(N)nccn32)C1 [Linsitinib] + CCNC(=O)c1noc(-c2cc(C(C)C)c(O)cc2O)c1-c1ccc(CN2CCOCC2)cc1 [Luminespib] (partner 0.01 µM)
Outline: (§1)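 Five library-drug doses in √10 steps were combined with a fixed anchor-drug dose, or a single drug was given alone, by pin tool to lung cancer cell lines in 1536-well plates the day after seeding. Nuclei were stained and counted after 5 days. Relative viability is the nuclei count in treated wells over that in vehicle wells, taken as the median of duplicate plates.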

Linsitinib + AZD7762 = compound: C[C@]1(O)C[C@@H](c2nc(-c3ccc4ccc(-c5ccccc5)nc4c3)c3c(N)nccn32)C1 [Linsitinib] + NC(=O)Nc1cc(-c2cccc(F)c2)sc1C(=O)N[C@H]1CCCNC1 [AZD7762] (partner 0.2 µM)
Outline: as §1

Ispinesib + Bortezomib = compound: Cc1ccc(C(=O)N(CCCN)[C@@H](c2nc3cc(Cl)ccc3c(=O)n2Cc2ccccc2)C(C)C)cc1 [Ispinesib] + CC(C)C[C@H](NC(=O)[C@H](Cc1ccccc1)NC(=O)c1cnccn1)B(O)O [Bortezomib] (partner 0.002 µM)
Outline: as §1

Ispinesib + Lapatinib = compound: Cc1ccc(C(=O)N(CCCN)[C@@H](c2nc3cc(Cl)ccc3c(=O)n2Cc2ccccc2)C(C)C)cc1 [Ispinesib] + CS(=O)(=O)CCNCc1ccc(-c2ccc3ncnc(Nc4ccc(OCc5cccc(F)c5)c(Cl)c4)c3c2)o1 [Lapatinib] (partner 2 µM)
Outline: as §1

Row | Cell Line | relative viability (Linsitinib + Luminespib; first compound 0.01 µM) | relative viability (Linsitinib + Luminespib; first compound 0.03162 µM) | relative viability (Linsitinib + Luminespib; first compound 1 µM) | relative viability (Linsitinib + AZD7762; first compound 0.01 µM) | relative viability (Linsitinib + AZD7762; first compound 0.03162 µM) | relative viability (Linsitinib + AZD7762; first compound 0.1 µM) | relative viability (Linsitinib + AZD7762; first compound 1 µM) | relative viability (Ispinesib + Bortezomib; first compound 0.001 µM) | relative viability (Ispinesib + Bortezomib; first compound 0.003162 µM) | relative viability (Ispinesib + Bortezomib; first compound 0.01 µM) | relative viability (Ispinesib + Bortezomib; first compound 0.03162 µM) | relative viability (Ispinesib + Bortezomib; first compound 0.1 µM) | relative viability (Ispinesib + Lapatinib; first compound 0.001 µM) | relative viability (Ispinesib + Lapatinib; first compound 0.003162 µM) | relative viability (Ispinesib + Lapatinib; first compound 0.01 µM) | relative viability (Ispinesib + Lapatinib; first compound 0.03162 µM) | relative viability (Ispinesib + Lapatinib; first compound 0.1 µM) | relative viability (Linsitinib + Luminespib; first compound 0.1 µM) | relative viability (Linsitinib + Luminespib; first compound 0.3162 µM) | relative viability (Linsitinib + AZD7762; first compound 0.3162 µM)
1 | EPLC-272H | 0.23 | 0.438 | 0.725 | 0.186 | 0.22 | 0.221 | 0.334 | 0.869 | 1.13 | 0.935 | 0.655 | 0.163 | 0.919 | 1.11 | 1.02 | 0.561 | 0.145 |  |  | 
2 | NCI-H2405 | 0.762 | 0.724 | 0.475 | 0.74 | 0.662 | 0.711 | 0.474 | 1.02 | 1.05 | 1.11 | 0.924 | 0.81 | 1.08 | 1.12 | 1.18 | 0.918 | 0.308 | 0.653 | 0.703 | 0.859
3 | LCLC-97TM1 | 0.753 | 0.854 | 0.678 | 0.299 | 0.271 | 0.317 | 0.271 | 0.518 | 1.16 | 0.689 | 0.143 | 0.254 | 0.998 | 1.18 | 0.858 | 0.673 | 0.112 | 0.622 | 0.501 | 0.162
4 | NCI-H727 | 0.323 | 0.207 | 0.288 | 0.39 | 0.503 | 0.346 | 0.376 |  | 1.71 | 1.21 | 0.762 | 0.337 |  | 0.81 | 0.809 | 0.426 | 0.29 | 0.346 | 0.268 | 0.363
5 | PC-3 [JPC-3] | 0.716 | 0.69 | 0.712 | 0.784 | 0.758 | 0.846 | 0.597 | 0.796 | 0.869 | 0.903 | 0.763 | 0.297 | 0.456 | 0.486 | 0.439 | 0.413 | 0.318 | 0.764 | 0.669 | 0.495
6 | NCI-H596 | 1.16 | 0.991 | 0.867 | 1.19 | 1.06 | 1 | 0.92 | 1.14 | 1.22 | 1.12 | 1.08 | 0.463 | 0.978 | 1.18 | 1.02 | 0.897 | 0.402 | 1.2 | 0.862 | 1.14
7 | NCI-H460 | 0.044 | 0.0373 | 0.0347 | 0.566 | 0.614 | 0.698 | 0.398 | 1.53 | 1.48 |  | 0.793 | 0.0396 | 1.1 | 1.23 | 1.39 | 0.335 | 0.0345 | 0.033 | 0.0397 | 
8 | NCI-H647 | 0.169 | 0.117 | 0.184 | 0.467 | 0.504 | 0.493 | 0.331 | 0.98 | 0.849 | 0.655 | 0.16 | 0.167 | 1.28 | 0.693 | 0.481 | 0.106 | 0.114 | 0.524 |  | 0.212
9 | NCI-H838 | 0.411 | 0.211 | 0.235 | 0.933 | 0.85 | 0.903 | 0.77 | 0.745 | 0.9 | 0.991 | 0.674 | 0.23 | 1.08 | 1.09 | 1.31 | 0.183 | 0.26 | 0.278 |  | 0.713
